{"source": "patent US8809316B2", "about": "“Use of immunosuppressant compounds in a new indication” (Novartis AG, priority 2008, dated 2014)", "format_in_all_cases": "in vivo, Lewis rats", "key": {"[1]": {"test_system": "sciatic nerves of EAN rats", "assay": "Immunohistochemistry of inflammatory cell infiltration in sciatic nerves of EAN rats", "details": "for Area of immunoreactivity/area of sciatic nerves (%) for B cells (OX22+) / Area of immunoreactivity/area of sciatic nerves (%) for Macrophages (ED1+) / Area of immunoreactivity/area of sciatic nerves (%) for T cells (W3/13+): Day 16, EAN rats", "experimental": "(§1) To evaluate inflammatory cell infiltration and pathological changes in the PNS, five compound A-treated rats (at both concentrations) and five control EAN rats from Day 16 were sacrificed. Rats were deeply anaesthetized with ether and perfused intracardially with 4° C., 4% paraformaldehyde in PBS. Left and right sciatic nerves were quickly removed and post-fixed in 4% formaldehyde overnight at 4° C. Sciatic nerves were cut into two equally long segments, embedded in paraffin, serially sectioned (3 μm) and mounted on silan-covered slides.\nAfter dewaxing, cross-sections of sciatic nerves were boiled (in a 600 W microwave oven) for 15 min in citrate buffer (2.1 g sodium citrate/L, pH 6). Endogenous peroxidase was inhibited with 1% H2O2 in methanol for 15 min. Sections were incubated with 10% normal pig serum (Biochrom, Berlin, Germany) to block non-specific binding of immunoglobulins and then with the following monoclonal antibodies: W3/13 (1:50; Serotec, Oxford, UK) for T lymphocytes, OX22 (1:200; Serotec, Oxford, UK) for B cells, ED1 for activated macrophages (1:100; Serotec, Oxford, UK). Antibody binding to tissue sections was visualized with biotinylated IgG F(ab)2 secondary antibody fragments (rabbit anti-mouse or rabbit anti-goat; 1:400; DAKO, Hamburg, Germany). Subsequently, sections were incubated with a Streptavidin-Avidin-Biotin complex (DAKO, Hamburg, Germany), followed by development with diaminobenzidine (DAB) substrate (Fluka, Neu-Ulm, Germany). Finally, sections were counterstained with Maier's Hemalum.\nTo evaluate immunostaining data, the percentages of areas of immunoreactivity (IR) to areas of sciatic nerve cross-sections were calculated. Images of sciatic nerve cross-sections were captured under 50× magnification using Nikon Coolscope (Nikon, Dusseldorf, Germany) with fixed parameters. Images were analyzed using MetaMorph Offline 7.1 (Molecular Devices, Toronto, Canada). Areas of IR were selected by colour threshold segmentation and all parameters were fixed for all images. Areas of sciatic nerve cross-sections were manually selected. For each EAN rat, four cross-sections from root and middle levels of both sides were analyzed. Results were given as arithmetic means of percentages of areas of IR to areas of sciatic nerve cross-sections and standard errors of means (SEM)."}, "[2]": {"test_system": "Experimental Autoimmune Neuritis (EAN) rats", "assay": "EAN clinical (neurological) score, suppressive treatment"}, "[3]": {"test_system": "sciatic nerves of EAN rats", "assay": "Luxol Fast Blue (LFB) staining, mean histological score of sciatic nerves of EAN rats", "details": "for Mean Histological Score: LFB staining, scale 0-3, sciatic nerves, Day 16", "experimental": "as §1\nThe routine Luxol Fast Blue (LFB) staining was applied to show myelin. Histological changes between Compound A and control EAN rats were compared by an established semi-quantitative method. Briefly, four cross-sections from root and middle level of both sides of EAN rats were analyzed. All perivascular areas present in cross-sections were evaluated by two observers unaware of the treatment, and the degree of pathological alteration was graded semiquantitatively on the following scale: 0=normal perivascular area; 1=mild cellular infiltrate adjacent to the vessel; 2=cellular infiltration plus demyelination in immediate proximity to the vessel; and 3=cellular infiltration and demyelination throughout the section. Results were given as mean histological score (Hartung et al., 1988)."}, "Body weight of EAN rats": {"assay": "Body weight of EAN rats"}, "[4]": {"details": "3 mg/kg intragastric once daily"}, "[5]": {"details": "10 mg/kg intragastric once daily"}}}
{"smiles": "CCc1cc(/C(C)=N/OCc2ccc(C3CCCCC3)c(C(F)(F)F)c2)ccc1CN1CC(C(=O)O)C1", "note": "[Compound A, 1-{4-[1-(4-Cyclohexyl-3-trifluoromethyl-benzyloxyimino)-ethyl]-2-ethyl-benzyl}-azetidine-3-carboxylic acid]", "values": [{"measurement": "Area of immunoreactivity/area of sciatic nerves (%) for B cells (OX22+)", "setting": "[1]; [4]", "value": 0.025, "unit": "%"}, {"measurement": "Area of immunoreactivity/area of sciatic nerves (%) for Macrophages (ED1+)", "setting": "[1]; [4]", "value": 0.20, "unit": "%"}, {"measurement": "Area of immunoreactivity/area of sciatic nerves (%) for T cells (W3/13+)", "setting": "[1]; [4]", "value": 0.08, "unit": "%"}, {"measurement": "Area of immunoreactivity/area of sciatic nerves (%) for B cells (OX22+)", "setting": "[1]; [5]", "value": 0.021, "unit": "%"}, {"measurement": "Area of immunoreactivity/area of sciatic nerves (%) for Macrophages (ED1+)", "setting": "[1]; [5]", "value": 0.11, "unit": "%"}, {"measurement": "Area of immunoreactivity/area of sciatic nerves (%) for T cells (W3/13+)", "setting": "[1]; [5]", "value": 0.04, "unit": "%"}, {"measurement": "Infiltration of T cells, B cells and macrophages in sciatic nerves (in words)", "setting": "[1]; EAN rats, Day 16", "value": "significantly suppressed infiltration"}, {"measurement": "Day of maximal neurological scores", "setting": "[2]; days from immunisation, control maximum at Day 13", "value": 15, "unit": "Day"}, {"measurement": "Day of full recovery of rats", "setting": "[2]; days from immunisation, control recovered by Day 22", "value": "≤ 19", "unit": "days"}, {"measurement": "Day at which (greatly reduced) neurological signs were seen", "setting": "[2]; days from immunisation, oral once daily until Day 22, control onset Day 9", "value": 14, "unit": "Day"}, {"measurement": "Effect on clinical signs of EAN (in words)", "setting": "[2]; relative to the water/cmc vehicle, FIGS. 1A and 1B", "value": "almost prevented the development of clinical signs of EAN"}, {"measurement": "Mean Histological Score", "setting": "[3]; 3 mg/kg", "value": 0.51}, {"measurement": "Mean Histological Score", "setting": "[3]; 10 mg/kg", "value": 0.25}, {"measurement": "Mean histological scores measured by LFB staining (in words)", "setting": "[3]; Compound A-treated versus control EAN rats", "value": "markedly lower"}, {"measurement": "Weight loss during disease (in words)", "setting": "Body weight of EAN rats; higher dosage suspension (10 mg/kg), FIG. 2B", "value": "small weight loss between days 11 and 12, followed by weight gain"}, {"measurement": "Weight loss during disease (in words)", "setting": "Body weight of EAN rats; lower compound A suspension (3 mg/kg), Day 11 to 16, FIG. 2B", "value": "reduced level of weight loss"}]}
